The text below walks through data of patent publication EP4644391A1, “NOVEL PHENYLQUINOLONE COMPOUND HAVING ANTIBACTERIAL AND ANTICANCER FUNCTIONS, AND PREPARATION THEREOF” (Alphamol Science Ltd (Shanghai), priority 2022, dated 2024).

The test system of assay [1] is P.aeruginosa ATCC 27853. Description: In vitro antibacterial activity assay (MIC, broth dilution). Format: cell-based. The conditions noted are these: Pseudomonas aeruginosa, ATCC27853; Table 2; 37°C, 16 hours; read-out: G- bacteria MIC P.aeruginosa ATCC 27853. From the text: (§1) The method used to indicate the activity of the compounds in this example is to record the minimum inhibitory concentration (MIC) of the compounds against bacteria. The specific experimental method is as follows: • 1. The bacterial liquid cultured from a single colony was taken, and diluted into autoclaved CAMHB broth in a ratio of 1:1000, and mixed well. • 2. The prepared drug solution was filtered through a sterile 0.22µm syringe filter and placed in a sterile EP tube for later use. • 3. A 96-well plate was taken, and 20µL of drug solution (400µg/mL) was added to each well in the first column of the 96-well plate. Then, 180µL of diluted bacterial liquid was added and mixed well (Perform 3 replicate rows for each drug). The same process was performed for the hydrochloride drug. • 4. 100 µL of diluted bacterial liquid was added to each well in the remaining 11 columns of the 96-well plate. Drugs are the same as above. • 5. Serial dilution: 100µL of liquid was taken from the first column to the second column, mixed well, then 100µL of liquid was taken from the second column to the third column, mixed well, and so on, sequentially diluting down to the last column (column 12). After mixing column 12 well, 100µL of liquid thereof was discarded. The drug concentration in each well was decreased by two-fold serially (the concentration in the first well is 40µg/mL). • 6. Blank CAMHB broth without added bacteria liquid was added to 3 blank wells in the 96-well plate, as negative control. • 7. The diluted bacterial liquid was added to 3 blank wells in the 96-well plate, as positive control. • 8. Incubated at 37°C for 16 hours. • 9. Results reading: the minimum inhibitory concentration is the minimum drug concentration at which no bacterial growth is visible to the naked eye and without turbidity.

The subject of assay [2] is A. baumannii ATCC 17978. Described as above. It counts as cell-based. The note with it: Acinetobacter baumannii, ATCC17978; Table 2; 37°C, 16 hours; read-out: G- bacteria MIC A. baumannii ATCC 17978.
Text: as §1

Assay [3] concerns E. feacium ATCC 700221. The description is as above. It counts as cell-based. The note with it: Table 1; 37°C, 16 hours; read-out: G+ bacteria MIC E. feacium ATCC 700221.
Text: as §1

Assay [4] relates to S. aureus ATCC 43300. The description is as above. It counts as cell-based. The conditions noted are these: Staphylococcus aureus, ATCC43300.
Text: as §1

Assay [5] has as its system E. coli ATCC 25922. The description is as above. Format: cell-based. The note with it: Escherichia coli, ATCC25922.
Text: as §1

In assay [6] the test system is Staphylococcus aureus ATCC43300. Description: Systemic blood infection animal model. It counts as in vivo, mice. The note with it: for number of colonies of organs (liver and kidney), antibacterial effect: 4 mg/kg, oral gavage 3 times a day for 7 days (positive drug given as ciprofloxacin hydrochloride). Here is the method:
Mice were administered by oral gavage with the drug solvent for the model group and the blank group. • (5) 8 h after the last administration, mice were euthanized by cervical dislocation, disinfected with 75% alcohol, and then necropsied under sterile conditions. The kidneys and livers were harvested, observed and photographed, and the weight was recorded. • (6) The kidneys and livers were placed in a sterile glass grinder and sterile PBS in a volume ten times the weight of the organs was added and grinded. The grinding solutions were taken out, 10-fold serially diluted, smeared to a TSA solid culture medium, and incubated at 37°C for 16 hours, then the colonies were counted. The number of colonies of the organs was calculated to evaluate the therapeutic effect.

For assay [7], the system named is human breast cancer cell MCF-7. Description: In vitro anticancer activity test (MTT cell proliferation assay). The conditions noted are these: MCF7. It counts as cell-based. As for the experimental part: The anticancer activity of the compounds was tested using an in vitro cancer cell tests. The specific test method is as follows: • 1. Cell recovery and culture method: the cryovial was taken out from the liquid nitrogen container firstly, soaked directly in 37°C warm water, and shaked from time to time to let it thaw as soon as possible. Then, the cryovial was transferred to a clean bench, and the lid was open. […] Then, the supernatant was discarded, complete culture medium containing 10% fetal bovine serum was added to resuspend the cells, the cells was counted, the cell density was adjusted, and then inoculated into a culture bottle. The culture bottle was placed in a cell culture incubator at 5% CO2 and 37°C. The complete culture medium was replaced once the next day and the culture was continued. • 2. Cell passaging method: adherent cells in the logarithmic growth phase were placed in a clean bench, the original culture medium was discarded, and washed three times with 1×PBS. An appropriate amount of 0.25% trypsin digestion solution was added to moisten the cells, and then the trypsin solution was aspirated. […] When 90% of the cells become round, the cells were moved immediately to the clean bench and complete culture medium was added to terminate digestion. Then, the cells were dislodged by pipetting up and down with a rubber-tipped dropper to single cells. The cells were counted, and the cell density was adjusted. The cells were inoculated into a suitable culture bottle or dish, added enough complete culture medium, and placed in a cell culture incubator at 5% CO2 and 37°C for static culture. For suspension cells in the logarithmic phase, the original culture medium was directly centrifuged at 50g for 5 minutes, the supernatant was discarded, and the cells were washed once with PBS and centrifuged. After discarding the supernatant, the complete culture medium was added and the cells were dispersed using a rubber-tipped dropper. The cells are counted, and the cell density was adjusted. […]
On the technique in general: Tetrazolium assays rely on reduction of a dye to a coloured formazan, in cell work by metabolically active cells.

[8] abbreviates: Table 1, 37°C, 16 hours, read-out: G+ bacteria MIC S. aureus ATCC 43300.
The mark [9] stands for this setting: Table 2, 37°C, 16 hours, read-out: G- bacteria MIC E. coli ATCC 25922.

What is called MIC is the smallest concentration in the dilution series that meets the test's criterion for growth inhibition. As usually defined, the IC50 is the concentration needed to halve the response being measured. A low value points to inhibition by little substance.

SMILES strings stand for the structures. In brackets after ≈: the same amount, converted by molar mass. Where two headings read alike, the source gives them in different places.

In the case of `O=C(O)c1cn(C2CC2)c2cc(N3CCNCC3)c(F)cc2c1=O` [Ciprofloxacin], the MIC in assay [1] was 0.1 to 1 µg/mL (≈ 0.302 to 3.02 µM); in assay [2] it was 0.1 to 1 µg/mL (≈ 0.302 to 3.02 µM); in assay [3], greater than 8 µg/mL; in assay [4] (setting [8]), 0.1 to 1 µg/mL (≈ 0.302 to 3.02 µM); in assay [5] (setting [9]) it was 0.1 to 1 µg/mL (≈ 0.302 to 3.02 µM). Besides, the “number of colonies of organs (liver and kidney), antibacterial effect” value in assay [6] is “not apparent”. The molecule also registered an IC50 in assay [7] greater than 100 µM.

Take `O=C(O)c1cn(C2CC2)c2c(Cl)c(-c3ccc(S(=O)(=O)NCCCC(F)(F)F)nc3)c(F)cc2c1=O` [Example 29, 8-chloro-1-cyclopropyl-6-fluoro-4-oxo-7-(6-(N-(4,4,4-trifluorobutyl)sulfamoyl)pyridin-3-yl)-1,4-dihydroquinolin-3-carboxylic acid]: the MIC in assay [1] was no more than 0.1 µg/mL; in assay [2] it was no more than 0.1 µg/mL; in assay [3], 1 to 8 µg/mL (≈ 1.83 to 14.6 µM); in assay [4] (setting [8]) it was no more than 0.1 µg/mL; in assay [4] (Table 3, read-out: S. aureus ATCC 43300 MIC), no more than 1 µg/mL; in assay [5] (setting [9]), no more than 0.1 µg/mL. Also, the MIC in assay [5] (Table 3, read-out: E. coli ATCC 25922 MIC) is no more than 1 µg/mL. Moreover, the “number of colonies of organs (liver and kidney) versus control group” value in assay [6] (1 mg/kg, oral gavage 3 times a day for 7 days) is “significant statistical difference from the control group”. Further, the “number of colonies of organs (liver and kidney), antibacterial effect” value in assay [6] is given as “huge difference”. The “antibacterial effect in the liver and kidney (number of colonies) compared with ciprofloxacin” value in assay [6] (oral gavage 3 times a day for 7 days, Figure 4) was “very significant antibacterial effect”. In assay [7], this molecule had a 50% inhibitory concentration (IC50) of 1 to 10 µM.

In assay [7], `CCN(CC)CCNC(=O)c1c(C)[nH]c(/C=C2\C(=O)Nc3ccc(F)cc32)c1C` [Sunitinib] returned an IC50 of 3.2 ± 0.3 µM.
